The target of test [1] is CREBBP (Homo sapiens (Human), UniProt Q92793). Put plainly: In vitro enzyme inhibition assay - CREBBP inhibition (AlphaScreen, biotinylated H4-tetraacetyl peptide). The class given is binding. The procedure, abridged:
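His-tagged CREBBP expressed in E. coli (50 nM final) incubated with biotinylated H4K5/8/12/16(Ac) peptide (20 nM final) in HEPES pH 7.3 buffer, 0.4% DMSO, 20 min at room temperature.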
A general note: In Alpha technology, singlet oxygen from a donor bead excites a nearby acceptor bead.

Test [2] addresses BRD4 (Homo sapiens (Human), UniProt O60885). Put plainly: In vitro enzyme inhibition assay - BRD4 inhibition (as described in U.S. Pat. No. 9,034,900). In kind it is binding. The following applies: Table 29; BRD4 BD1.
Where [3] appears, read: Table 28, AlphaScreen, H4-tetraacetyl peptide.

Chain of CREBBP (Q92793 1081-1197): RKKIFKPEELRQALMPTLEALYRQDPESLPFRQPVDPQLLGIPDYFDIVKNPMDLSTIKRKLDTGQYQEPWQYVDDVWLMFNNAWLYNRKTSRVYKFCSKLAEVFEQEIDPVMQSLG

The term IC50 denotes the concentration needed to halve the response being measured. The low end stands for greater potency in that assay, the high end for weaker potency in that assay. For the compound `CCS(=O)(=O)Nc1ncc(Oc2ccc(F)cc2F)c(-c2cc(C)c(=O)n(CC3CC3)c2)n1`, the figures for the IC50 in test [1] (Table 29) and in test [2] were greater than 5000 nM and less than 500 nM, respectively.

For the compound `Cc1cccc(Cl)c1Oc1nc(NS(=O)(=O)C(C)C)cc(-c2cc(C)c(=O)n(C)c2)n1` [Example 3, Propane-2-sulfonic acid [2-(2-chloro-6-methyl-phenoxy)-6-(1,5-dimethyl-6-oxo-1,6-dihydro-pyridin-3-yl)-pyrimidin-4-yl]-amide], the 50% inhibitory concentration (IC50) is less than 500 nM in test [1] (setting [3]), less than 500 nM in test [1] (Table 29) and 500 to 5000 nM in test [2].

With `COc1cccc(C#N)c1Oc1nc(NS(=O)(=O)C(C)C)cc(-c2cc(C)c(=O)n(C)c2)n1` [Example 11, Propane-2-sulfonic acid [2-(2-cyano-6-methoxy-phenoxy)-6-(1,5-dimethyl-6-oxo-1,6-dihydro-pyridin-3-yl)-pyrimidin-4-yl]-amide], the concentration for half-maximal inhibition (IC50) in test [1] (setting [3]) is less than 500 nM; in test [1] (Table 29) it was less than 500 nM; in test [2] it was greater than 5000 nM.

In the case of `CCCCS(=O)(=O)Nc1cc(-c2cc(C)c(=O)n(C)c2)nc(Oc2c(C)cccc2Cl)n1` [Example 14, Butane-1-sulfonic acid [2-(2-chloro-6-methyl-phenoxy)-6-(1,5-dimethyl-6-oxo-1,6-dihydro-pyridin-3-yl)-pyrimidin-4-yl]-amide], the half-inhibitory concentration (IC50) in test [1] (setting [3]) is less than 500 nM; in test [1] (Table 29), less than 500 nM; in test [2], 500 to 5000 nM.

Consider `Cc1cc(Cl)cc(Cl)c1Oc1nc(NS(=O)(=O)C(C)C)cc(-c2cc(C)c(=O)n(C)c2)n1` [Example 33, Propane-2-sulfonic acid [2-(2,4-dichloro-6-methyl-phenoxy)-6-(1,5-dimethyl-6-oxo-1,6-dihydro-pyridin-3-yl)-pyrimidin-4-yl]-amide], for which the IC50 in test [1] (setting [3]) was less than 500 nM; in test [1] (Table 29), less than 500 nM; in test [2], greater than 5000 nM.

On to `CCCCS(=O)(=O)Nc1cc(-c2cc(C)c(=O)n(C)c2)nc(Oc2c(Cl)cccc2CC)n1` [Example 41, Butane-1-sulfonic acid [2-(2-chloro-6-ethyl-phenoxy)-6-(1,5-dimethyl-6-oxo-1,6-dihydro-pyridin-3-yl)-pyrimidin-4-yl]-amide], for which the IC50 in test [1] (setting [3]) is less than 500 nM; in test [1] (Table 29), less than 500 nM; in test [2], greater than 5000 nM.

`Cc1cc(-c2cc(NS(=O)(=O)C3CCCC3)nc(Oc3ccc(F)cc3F)n2)cn(C)c1=O` [Example 66, N-(2-(2,4-difluorophenoxy)-6-(1,5-dimethyl-6-oxo-1,6-dihydropyridin-3-yl)pyrimidin-4-yl)cyclopentanesulfonamide]: the half-inhibitory concentration (IC50) is less than 500 nM in test [1] (setting [3]), less than 500 nM in test [1] (Table 29) and 500 to 5000 nM in test [2].

As for `CCCCS(=O)(=O)Nc1cc(-c2cc(C)c(=O)n(C)c2)nc(Oc2c(C)cccc2C)n1` [Example 72, N-(6-(1,5-dimethyl-6-oxo-1,6-dihydropyridin-3-yl)-2-(2,6-dimethylphenoxy)pyrimidin-4-yl)butane-1-sulfonamide], the values for the IC50 in test [1] (setting [3]), in test [1] (Table 29) and in test [2] were less than 500 nM, less than 500 nM and greater than 5000 nM, respectively.

`CCCCS(=O)(=O)Nc1cc(-c2cc(Cl)c(=O)n(C)c2)nc(Oc2c(C)cccc2C)n1` [Example 87, N-(6-(5-chloro-1-methyl-6-oxo-1,6-dihydropyridin-3-yl)-2-(2,6-dimethylphenoxy)pyrimidin-4-yl)butane-1-sulfonamide]: the IC50 is less than 500 nM in test [1] (setting [3]), less than 500 nM in test [1] (Table 29) and greater than 5000 nM in test [2].

Turning to `CCCCS(=O)(=O)Nc1cc(-c2ccc(=O)n(C)c2)nc(Oc2c(C)cccc2F)n1` [Example 113, Butane-1-sulfonic acid [2-(2-fluoro-6-methyl-phenoxy)-6-(1-methyl-6-oxo-1,6-dihydro-pyridin-3-yl)-pyrimidin-4-yl]-amide], the results for the IC50 in test [1] (setting [3]), in test [1] (Table 29) and in test [2] were less than 500 nM, less than 500 nM and greater than 5000 nM, respectively.

For `CCCCS(=O)(=O)Nc1cc(-c2ccc(=O)n(C)c2)nc(Oc2c(F)ccc(F)c2C)n1` [Example 350, N-(2-(3,6-difluoro-2-methylphenoxy)-6-(1-methyl-6-oxo-1,6-dihydropyridin-3-yl)pyrimidin-4-yl)butane-1-sulfonamide], in test [1] (setting [3]), the half-maximal inhibitory concentration (IC50) was less than 500 nM.

With `CCC(C)S(=O)(=O)Nc1cc(-c2ccc(=O)n(C)c2)nc(Oc2c(F)ccc(F)c2C)n1` (centres unmarked) [Example 351, N-(2-(3,6-difluoro-2-methylphenoxy)-6-(1-methyl-6-oxo-1,6-dihydropyridin-3-yl)pyrimidin-4-yl)butane-2-sulfonamide], in test [1] (setting [3]), the IC50 is less than 500 nM.

In turn, `CCCCS(=O)(=O)Nc1nc(Oc2c(C)cccc2F)nc(-c2ccc(=O)n(C)c2)c1F` [Example 352, N-(5-fluoro-2-(2-fluoro-6-methylphenoxy)-6-(1-methyl-6-oxo-1,6-dihydropyridin-3-yl)pyrimidin-4-yl)butane-1-sulfonamide] showed a half-inhibitory concentration (IC50) in test [1] (setting [3]) of less than 500 nM.

For the compound `CCCCS(=O)(=O)Nc1cc(-c2ccc(=O)n(C)c2)nc(OC2CCOCC2)n1` [Example 353, N-(6-(1-methyl-6-oxo-1,6-dihydropyridin-3-yl)-2-((tetrahydro-2H-pyran-4-yl)oxy)pyrimidin-4-yl)butane-1-sulfonamide], the concentration for half-maximal inhibition (IC50) in test [1] (setting [3]) was less than 500 nM.

`CCCS(=O)(=O)Nc1cc(-c2ccc(=O)n(C)c2)nc(OC2CCOCC2)n1` [Example 354, N-(6-(1-methyl-6-oxo-1,6-dihydropyridin-3-yl)-2-((tetrahydro-2H-pyran-4-yl)oxy)pyrimidin-4-yl)propane-1-sulfonamide] yielded a half-maximal inhibitory concentration (IC50) in test [1] (setting [3]) of less than 500 nM.

Regarding `CC(C)Oc1nc(NS(=O)(=O)c2ccccc2)cc(-c2ccc(=O)n(C)c2)n1` [Example 355, N-(2-isopropoxy-6-(1-methyl-6-oxo-1,6-dihydropyridin-3-yl)pyrimidin-4-yl)benzenesulfonamide], the IC50 in test [1] (setting [3]) was less than 500 nM.

Turning to `Cn1cc(-c2cc3nc(n2)Oc2cccc(c2)OCC=CCCS(=O)(=O)N3)ccc1=O` [Example 356, 5-(10,10-dioxido-2,4-dioxa-10-thia-11-aza-1(2,4)-pyrimidina-3(1,3)-benzenacycloundecaphan-6-en-16-yl)-1-methylpyridin-2(1H)-one], the 50% inhibitory concentration (IC50) in test [1] (setting [3]) was less than 500 nM.

Compound `Cn1cc(-c2cc3nc(n2)Oc2cccc(c2)OCCCCCS(=O)(=O)N3)ccc1=O` [Example 357, 5-(10,10-dioxido-2,4-dioxa-10-thia-11-aza-1(2,4)-pyrimidina-3(1,3)-benzenacycloundecaphane-1^6-yl)-1-methylpyridin-2(1H)-one] gave a half-inhibitory concentration (IC50) in test [1] (setting [3]) of less than 500 nM.

In turn, `Cn1cc(-c2cc3nc(n2)Oc2cccc(c2)OCCC=CCCS(=O)(=O)N3)ccc1=O` [Example 358, 5-(11,11-dioxido-2,4-dioxa-11-thia-12-aza-1(2,4)-pyrimidina-3(1,3)-benzenacyclododecaphan-7-en-1^6-yl)-1-methylpyridin-2(1H)-one] yielded a 50% inhibitory concentration (IC50) in test [1] (setting [3]) of less than 500 nM.

In test [1] (setting [3]), `Cn1cc(-c2cc3nc(n2)Oc2cccc(c2)OCCCCCCS(=O)(=O)N3)ccc1=O` [Example 359, 5-(11,11-dioxido-2,4-dioxa-11-thia-12-aza-1(2,4)-pyrimidina-3(1,3)-benzenacyclododecaphane-1^6-yl)-1-methylpyridin-2(1H)-one] returned an IC50 of less than 500 nM.

Take `Cn1cc(-c2cc3nc(n2)Oc2cc(ccc2Cl)OCC=CCCS(=O)(=O)N3)ccc1=O` [Example 360, 5-(36-chloro-10,10-dioxido-2,4-dioxa-10-thia-11-aza-1(2,4)-pyrimidina-3(1,3)-benzenacycloundecaphan-6-en-1^6-yl)-1-methylpyridin-2(1H)-one]: the IC50 in test [1] (setting [3]) is less than 500 nM.

For `Cn1cc(-c2cc3nc(n2)Oc2cc(ccc2Cl)OCC=CCCCS(=O)(=O)N3)ccc1=O` [Example 361, 5-(36-chloro-11,11-dioxido-2,4-dioxa-11-thia-12-aza-1(2,4)-pyrimidina-3(1,3)-benzenacyclododecaphan-6-en-1^6-yl)-1-methylpyridin-2(1H)-one], the 50% inhibitory concentration (IC50) in test [1] (setting [3]) is less than 500 nM.

`Cn1cc(-c2cc3nc(n2)Oc2cc(ccc2F)OCC=CCCCS(=O)(=O)N3)ccc1=O` [Example 362, 5-(36-fluoro-11,11-dioxido-2,4-dioxa-11-thia-12-aza-1(2,4)-pyrimidina-3(1,3)-benzenacyclododecaphan-6-en-1^6-yl)-1-methylpyridin-2(1H)-one] had an IC50 in test [1] (setting [3]) of less than 500 nM.

Turning to `Cc1sc2c(c1C)C(c1ccc(Cl)cc1)=N[C@@H](CC(=O)OC(C)(C)C)c1nnc(C)n1-2` [JQ-1, tert-butyl (S)-2-(4-(4-chlorophenyl)-2,3,9-trimethyl-6H-thieno[3,2-f][1,2,4]triazolo[4,3-a][1,4]diazepin-6-yl)acetate, reference compound], the IC50 in test [1] (Table 29) was greater than 5000 nM.

Regarding `CCS(=O)(=O)Nc1ncc(Oc2ccc(F)cc2F)c(-c2cc(C)c(=O)n(C)c2)n1` [N-(5-(2,4-difluorophenoxy)-4-(1,5-dimethyl-6-oxo-1,6-dihydropyridin-3-yl)-pyrimidin-2-yl)ethanesulfonamide], the half-maximal inhibitory concentration (IC50) in test [1] (Table 29) was greater than 5000 nM; in test [2], less than 500 nM.

In the case of `Cc1cc(-c2nc(NS(C)(=O)=O)ncc2Oc2ccc(F)cc2F)cn(C)c1=O` [N-(5-(2,4-difluorophenoxy)-4-(1,5-dimethyl-6-oxo-1,6-dihydropyridin-3-yl)-pyrimidin-2-yl)methanesulfonamide], the IC50 in test [1] (Table 29) was greater than 5000 nM; in test [2] it was less than 500 nM.

(Values after US10202360B2 (CELGENE QUANTICEL RESEARCH, INC., priority 2016, dated 2019).)
